Data set [1] has as its system model mice (C57BL/6J). The experiment in a line: Frailty index test. In kind it is in vivo, mouse. As for the experimental part:
The above model mice were orally administered 1000 mg/kg/day of ambroxol hydrochloride from 50 to 81 weeks of age, and frailty associated with aging was confirmed by means of a frailty index test. The evaluated items of the frailty index test are as follows, and an evaluation standard in accordance with clinical symptoms (0=no symptoms, 0.5=mild symptoms, 1=severe symptoms) was employed. • Hair, skin • Alopecia Whether there is hair loss • Loss of fur color Change in fur color from black to gray, brown, or white • Dermatitis Whether there is skin inflammation • Loss of whiskers Loss of hair and whiskers around nose • Coat condition Condition of coat, smoothness and shine of fur • Physical/musculoskeletal • Tumors Presence/absence of tumor • Distended abdomen Abdomen enlarged compared to surrounding • Kyphosis Check by stroking back • Tail stiffening Whether tail wraps freely when stroked, stiffness • Gait disorder Difficulty in walking, wide stance • Tremor Whether there are age-related tremors • Forelimb grip strength Strength of grip on wire mesh when pulled by the tail • Body condition score Check visual signs of bony protuberance, muscle wasting, obesity • Vestibulocochlear/auditory • Vestibular disturbance Balance, orientation, acceleration • Hearing loss Whether there is response when clicker is sounded from behind • Ocular/nasal • Cataracts Clouding of lens of eye • Corneal opacity Cloudy cornea • Eye discharge/swelling Eyes swollen, abnormal secretions or crusting • Microphthalmia One or both eyes are small and/or sunken • Vision loss Whether the mouse reaches toward the ground when lowered by the tail (also use a ruler) • Menace reflex Whether there is response when foreign object is brought near eyes • Nasal discharge Whether there is nasal discharge • Digestive/urogenital • Malocclusion Whether there are malocclusions or overgrown teeth • Rectal prolapse Whether there is protrusion of rectum • Vaginal/uterine/penile prolapse Check genitals • Diarrhea Check cage bedding • Respiratory • Breathing rate/depth Check for dyspnea, breath sounds (rales), tachypnea, • Discomfort • Mouse Grimace Scale Assess nose bulge, cheek bulge, ear angle, whisker change • Piloerection Whether there is stiff hair or bristling even when stroked • Other (compared to reference values) • Temperature Take average of two readings • Weight Measure weight
(§1) Grip strength was evaluated by means of a measurement of grip strength called the grip test, using a muscle strength measuring device (Muromachi Kikai, MK-380S). Specifically, the mouse was made to grasp a mesh made of wire (wire mesh) with its front and back legs, and its tail was pulled back horizontally little by little until the mouse released the wire mesh. The maximum muscle strength at that time was measured.
The above model mice were given 307.2 mg/kg/day of L-carbocysteine in drinking water for 23 weeks starting at the age of 49 weeks, and frailty index test was performed as in Example 2-5 above to confirm age-related frailty and the like.

A further data set has as its system aged mice (C57BL/6J). Nature of the data set: Treadmill test of muscle strength (endurance) in aged mice. The conditions noted are these: vs PBS. In kind it is in vivo, mouse. The text has this:
To confirm that muscle strength decline would be observed in model mice (C57BL/6J) (purchased from ORIENTAL YEAST), muscle strength (endurance) in 79-week-old aged mice was checked in a treadmill test as follows.
Before recording performance, the mice were trained for three days so as to become familiarized with the equipment. An electrical stimulation grid was adjusted to 1 mA and the gradient was set to 15 degrees. On the first day of training, the mice were made to walk on the treadmill for 10 min at a speed of 10 m/min, rest for 10 min, and then walk for 10 min at a speed of 10 m/min. On the second and third days, the first two steps were performed under the same conditions as on the first day, after which walking was started at 10 m/min, and then increasing the speed by 1 m/min each minute up to a maximum speed of 20 m/min. Maximum exercise endurance was measured on the fourth day. Six mice were placed on the treadmill and the belt speed was started at 5 m/min for 5 min to warm up the mice. The speed was increased by 1 m/min to a maximum of 20 m/min. After 5 minutes of running, the speed was increased from 20 m/min to 21 m/min for 10 minutes. The mice were then forced to run at 22 m/min until they remained on the electrical stimulation grid for 10 seconds, and the distance they ran until they remained for 10 seconds was measured. […]

A short description of data set [2]: Body weight and behaviour observed during the administration period. In kind it is in vivo, mouse. How it is done:
L-ethylcysteine hydrochloride was orally administered to aged mice from 40 to 79 weeks of age. The dose was 1000 mg/kg/day.
Ambroxol hydrochloride was orally administered to aged mice from 50 to 77 weeks of age. The dose was 9.21 mg/kg/day.

The subject of data set [3] is aged mice. The experiment in a line: Muscle mass in aged mice, with or without exercise. In kind it is in vivo, mouse.
The test system of data set [4] is gene expression in (gastrocnemius or soleus) muscle. Nature of the data set: Genetic analysis (RNA-seq) of muscle of administered aged mice. In kind it is in vivo, mouse. The conditions noted are these: FDR <0.05. The text has this:
The procedure and reagents used are as follows. The quality of all reads was checked using FastQC v0.11.8 and low-quality reads were removed using Trimmomatic (ver 0.38). LEADING: 20 (cut bases off the start of a read if quality score is less than 20), TRAILING: 20, SLIDING WINDOW: 4:15 (window size 4, average quality 15), MINLEN: 36 (drop reads if the length is less than […]) Each read obtained after filtering was mapped to the reference genome GRCm38 using STAR (ver2.7.0.f). Mapping was performed using the default values of STAR. Since the reads were paired-end with a length of 150 bp, a STAR index for reference genome GRCm38 was created in accordance with the length of 150 to perform mapping. Index generation was performed as follows: • Run Mode; genomeGenerate • Reference; GRCm38 • Annotation file; genecode version M24 • sjdbOverhang; 150 • alignment was performed using the index generated above. • Other than the foregoing, no options were added and the default values were used. • (Basic options were as follows.) • genomeDir; index generated above […] At this time, gene symbols as defined in genecode version M24 were counted. Regarding the calculated count numbers, genes with count data of 0 in all samples were filtered, TMM normalization was performed using edgeR (ver3.22.3), and correction between samples was performed. First, to obtain an overview of the data, principal component analysis and clustering analysis were performed using the count data after removing low-expressing genes. Expression changes of the specified patterns were compared based on the obtained expression values. edgeR was used to test for differentially expressed genes. […] Gene enrichment analysis was performed on the obtained variable genes using gprofiler2 (version 0.1.6). The expression values of the obtained differentially expressed genes were normalized, then extracted and visually depicted as a heat map to confirm the differential expressions. […] This analysis was performed using […] 1.8.0). In […], analysis was performed using a mouse database relating to 10 kbp upstream the TSS, stored in […]. Details of the analysis are as follows (cited from https://scenic.aertslab.org/tutorials/[…]). In the present example, gene regulation involved in the ambroxol hydrochloride of the present invention was investigated using model mice to identify genes useful for the diagnosis and treatment of sarcopenia, in the same manner as in Example 1. […] From the analysis of upstream transcription factors shown in FIG. 12, new transcription factors involved in differentiation and cellular senescence were observed as upstream factors.

For data set [5], the system named is aged mice. The experiment in a line: Contextual fear conditional (CFC) test of fear memory. Type of data set: in vivo, mouse. The conditions noted are these: 77-week-old aged mice after ambroxol hydrochloride administration; vs PBS; FIG. 8. How it is done: Cognition and memory of the 77-week-old aged mice of Example 2-2 were evaluated by means of a contextual fear conditional (CFC) test. In the cognition and memory experiment, memory is evaluated in two ways: fear memory and spatial memory; fear memory is evaluated based on the time the subject freezes and stops moving after receiving an electric shock. […] Regarding spatial memory, when a mouse is placed on a white disk and a strong light is illuminated thereon, the mouse, which is nocturnal, will try to escape to a dark place. The disk has 20 holes, of which 19 are blocked and only one through which escape is possible. The mouse is then trained for six days to memorize the location of that one hole. The degree to which the mouse could remember the location of the hole was evaluated one day later and one week later (reference: https://www.nature.com/protocolexchange/protocols/349Reiserer).
In this example, fear memory was evaluated using the CFC test. Fear memory was assessed by CFC after administration of ambroxol hydrochloride to 77-week-old, aged mice of Example 2-2.

The test system of the next data set is C2C12 cells. Nature of the data set: Gene expression in cultured C2C12 cells, treated versus untreated. In kind it is cell-based, mouse. The conditions noted are these: treated vs untreated cells; Q<0.05; FIG. 13. As for the experimental part:
C2C12 cells, which are derived from striated muscle of mice, were cultured and treated with ambroxol hydrochloride.

Data set [6] has as its system model mice (C57BL/6J). Nature of the data set: Grip test with muscle strength measuring device (MK-380S). In kind it is in vivo, mouse. The conditions noted are these: oral 1000 mg/kg/day from 50 to 81 weeks of age; FIG. 19. As for the experimental part: as §1
Where [7] appears, read: aged mice administered L-ethylcysteine hydrochloride, FIG. 2.
The mark [8] stands for this setting: mice administered ambroxol hydrochloride, FIG. 9.

Structures can show the parent of a compound that is named as a salt.

Turning to `N[C@@H](CSCC(=O)O)C(=O)O` [L-carbocysteine], the “frailty index: dermatitis” value with model mice (C57BL/6J) [1] (307.2 mg/kg/day in drinking water for 23 weeks from 49 weeks of age) is reported as “improves”. Also, in the data set on model mice (C57BL/6J) [1] (307.2 mg/kg/day in drinking water for 23 weeks from 49 weeks of age, FIG. 22), the “frailty index: alopecia” value is given as “improves”. In addition, in the data set with model mice (C57BL/6J) [1] (307.2 mg/kg/day in drinking water for 23 weeks from 49 weeks of age, FIG. 23), the “frailty index: fur color loss (gray hair)” value was “improves”. In the data set with model mice (C57BL/6J) [1] (307.2 mg/kg/day in drinking water for 23 weeks from 49 weeks of age, FIG. 25), the “frailty index: physical condition score (bone and muscle)” value is reported as “improvement in physical condition”. Also, the “total score of the frailty index test” value in the data set on model mice (C57BL/6J) [1] (307.2 mg/kg/day in drinking water for 23 weeks from 49 weeks of age, FIG. 26) is “improvement in the total value”.
For the molecule `CCOC(=O)[C@@H](N)CS` [L-ethylcysteine hydrochloride], in the data set on aged mice (C57BL/6J) (oral 1000 mg/kg/day from 40 to 79 weeks of age, measured at 79 weeks, FIG. 1), the “muscle strength (endurance) by treadmill test” value is “increase in muscle strength”. Moreover, the “changes in body weight or behavioral abnormalities during administration” value in data set [2] (oral 1000 mg/kg/day, 40 to 79 weeks of age) was “no significant changes in body weight or behavioral abnormalities”. For the same molecule, the “muscle mass in aged mice” value with aged mice [3] (administration alone) is on record as “increased muscle mass”. Also, the “muscle mass in aged mice” value with aged mice [3] (administration in combination with exercise) is given as “significantly restored muscle mass”. In addition, in data set [4] (setting [7]), the “number of genes with decreased expression in muscle” value was 92 genes and the “number of genes with increased expression in muscle” value was found to be 158 genes.
`Nc1c(Br)cc(Br)cc1CNC1CCC(O)CC1` (stereo not shown) [Ambroxol hydrochloride, ambroxol hydrochloride]: in the data set on aged mice (C57BL/6J) (oral 9.21 mg/kg/day from 50 to 77 weeks of age, measured at 77 weeks, FIG. 7), the “muscle strength (endurance) by treadmill test” value is reported as “increase in muscle strength”. Also, the “changes in body weight or behavioral abnormalities during administration” value in data set [2] (oral 9.21 mg/kg/day, 50 to 77 weeks of age) was “no significant changes in body weight or behavioral abnormalities”. Also, in data set [4] (setting [8]), the “number of genes with decreased expression in muscle” value came out at 204 genes and the “number of genes with increased expression in muscle” value is listed as 164 genes. Besides, the “CFC Freezing scores / cognitive performance” value in the data set on aged mice [5] is “improved CFC Freezing scores and increased cognitive performance”. For the same molecule, in the data set with C2C12 cells, the “number of genes with decreased expression in C2C12 cells” value is listed as 54 genes and the “number of genes with increased expression in C2C12 cells” value was found to be 53 genes. The “frailty index: coat condition” value in the data set on model mice (C57BL/6J) [1] (oral 1000 mg/kg/day from 50 to 81 weeks of age) is listed as “improved”. The “frailty index: skin condition (hair, skin)” value in the data set with model mice (C57BL/6J) [1] (oral 1000 mg/kg/day from 50 to 81 weeks of age, FIG. 18) is on record as “improved”. Further, in the data set with model mice (C57BL/6J) [1] (oral 1000 mg/kg/day from 50 to 81 weeks of age, FIG. 20), the “frailty index: osteoporosis (physical/musculoskeletal)” value is given as “improved”. The “muscle strength (grip strength)” value in the data set with model mice (C57BL/6J) [6] is listed as “improved”.

Source of the values: patent US20250161255A1, “NEW THERAPY AND PREVENTION FOR SUPPRESSING AGING-RELATED DISORDERS INCLUDING SARCOPENIA” (priority 2022, published 2025).
